Like-named read-outs stand apart in the source and are kept apart here.
Columns and labels:
CYP3A4 = CYP3A4 (Homo sapiens (Human), UniProt P08684); assay: in vitro
Description: The metabolism of retinoic acid and vitamin D in the skin is incompletely understood, but there is evidence for the involvement of CYP26A1, CYP3A4 and CYP2C8 in catalyzing the 4-hydroxylation of all-trans RA to 4-hydroxy-RA. It is believed, without being limited by theory, that CYP3A4 may be particularly important for ATRA metabolism in the skin. This is because CYP3A4 is expressed in skin, involved in RA metabolism, a CYP with one of the broadest substrate specificities of all of the known CYPs and available as a human recombinant protein in a commercial kit. Thus, a commercially available CYP3A4 assay was used as a surrogate to predict RAMBA potential in the skin.
The commercially available P450-GLO™ Assay kit (Promega Corporation, Madison Wis.) was used to screen various compounds for potential CYP activity, specifically CYP3A4A inhibition activity. CYP3A4A is thought to be among the primary CYP isoforms responsible for retinoic acid metabolism in the skin.
A commercially available P450-GLO™ Assay kit (Promega Corporation, Madison Wis.) is used to screen various compounds for CYP3A4A inhibition activity. CYP3A4A is thought to be one of the primary CYP isoforms responsible for retinoic acid metabolism in the skin.

[1] = system: ATRA 4-hydroxylase (CYP) activity of pig liver microsomes; assay: In vitro ATRA 4-hydroxylase activity assay to determine CYP inhibition (pig liver microsomes)
Description: Cytochrome P450 is a large and diverse group of enzymes that catalyze the oxidation of organic substances. […] Applicant evaluated the potential RAMBA activity of several azoles using pig liver microsomes, a rich source of CYP activity, comprising many different CYP 450 isoforms. […] As understanding in this area has progressed, a more specific CYP inhibition assay can be used to provide better predictivity of activity in human skin. Nevertheless, this assay may still be used as a general predictor of overall CYP activity.
All procedures were carried out under minimal light in order to prevent degradation of the retinoid samples.
Microsomal preparation: one lobe of fresh pig liver was obtained at the time of slaughter from a food-processing company and immediately placed in ice cold 15 mM KH2PO4/250 mM sucrose (pH 7.4) and kept on ice during transportation. A 10 g sample of liver was minced and homogenized in 30 mls of homogenization buffer (15 mM KH2PO4/250 mM sucrose) using a Tekmar homoginizer by pulsing 3 times 20 second pulses. […] The remaining pig liver was cut into 10-g pieces and wrapped in aluminum foil and stored at −80° C. The homogenates from the 8 samples were pooled and centrifuged at 13,000×g for 20 minutes at 4° C. to remove crude debris and the supernatant was further centrifuged at 100,000×g for 70 minutes at 4° C. The microsomal pellets were resuspended into 50 mls of 150 mM KH2PO4/1 mM DTT (pH 7.4) and 1 mL aliquots were stored at −80° C.
100-150 μg of pig liver microsomal protein in 150 mM KH2PO4 is incubated at 37° C. in the presence of radiolabeled ATRA and 5 mM NADPH for 90 min. The final ATRA concentration is 1 μM, as a combination of [20-Methyl-^3H]ATRA and unlabeled ATRA. Initially, radiolabeled ATRA may be used to assist in validating the method. Once retention times of retinoid metabolites are identified, unlabeled ATRA is used for screening. Compounds tested as possible competitive substrates are added to the assay 10 min prior to the addition of ATRA. Ethanol, containing 0.1% butylated hydroxytoluene (BHT) as an antioxidant, is used to stop the reactions. For recovery of ATRA the pH of reactions are adjusted to 3.0 before extraction with 0.1N HCl. Retinoids are extracted from the protein aqueous phase with 4 mL hexane, 1 ml 100 μg/ml BHT in water (pH 3). An additional 4 mlL of hexane (pH 3) is used for a second extraction. The organic extractions are pooled, evaporated to dryness using a speed vac, and resuspended in 62.5 μl acetonitrile containing 1 mg/ml BHT. Samples are analyzed by HPLC.
Mobile phases used for gradient elution of retinoids are those of Duell et al., J. Clin. Invest. […] Mobile phase A is acetonitrile:0.02 M ammonium acetate:acetic acid (1:1:0.01) and mobile phase B is acetonitrile:0.2M ammonium acetate:acetic acid (19:1:0.008). At the start of the HPLC run, solvent A is run 100% followed by a linear gradient to solvent B at 3 minutes, a shallow gradient to 81% solvent B at 38 minutes, and 100% solvent B at 40 minutes. […] Effluent from the HPLC column flows directly into a flow-through scintillation spectrometer (β-RAM). Because of the sensitivity limitations of the β-RAM spectrometer, it is not used to quantitate peak areas but rather to confirm ATRA and ATRA 4-hydroxylase activity. Calculated peaks areas (using Millenium software—Waters Corp.) of ATRA and ATRA metabolites are used to quantify relative activity levels.

[2] = read-out: IC50 (uM), CYP3A4 inhibition, P450-GLO Assay kit
[3] = read-out: IC50 (μM), in vitro 4-hydroxylase inhibition assay, pig liver microsomes, 1 μM ATRA, 90 min at 37° C.

Sequence of CYP3A4 (P08684 whole entry): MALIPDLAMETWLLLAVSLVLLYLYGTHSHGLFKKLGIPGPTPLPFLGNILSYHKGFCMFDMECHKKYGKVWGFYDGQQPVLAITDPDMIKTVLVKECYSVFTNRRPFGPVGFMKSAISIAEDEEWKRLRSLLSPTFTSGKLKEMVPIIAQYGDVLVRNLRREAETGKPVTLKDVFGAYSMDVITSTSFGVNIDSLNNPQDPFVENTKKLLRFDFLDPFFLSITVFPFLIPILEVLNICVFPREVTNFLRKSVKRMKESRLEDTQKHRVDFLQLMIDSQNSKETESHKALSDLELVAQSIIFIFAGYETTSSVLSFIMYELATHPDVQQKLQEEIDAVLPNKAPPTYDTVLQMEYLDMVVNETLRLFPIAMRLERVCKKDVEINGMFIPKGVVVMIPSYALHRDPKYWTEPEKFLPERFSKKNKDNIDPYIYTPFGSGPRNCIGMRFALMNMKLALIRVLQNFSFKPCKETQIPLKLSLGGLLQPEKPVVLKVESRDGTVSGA

Row | IC50 (CYP3A4; human) [µM] | Compound | IC50 (CYP3A4; [2]) [µM] | other results
1 | > 10 | Clc1ncnc2[nH]cnc12 [6-Chloropurine] |  | 
2 | > 10 | CC1=N[C@H](C(=O)O)CCN1 [Ectoine] |  | 
3 | > 10 | CC(NC(=O)[C@@H](N)CCC(=O)O)c1ncc[nH]1 (stereo partly drawn) [Glutamylamidoethyl] |  | 
4 | ~10 | O=C(/C=C/C=C/c1ccc2c(c1)OCO2)N1CCCCC1 [Piperine] |  | hit / no hit, inhibition of CYP3A4 (CYP3A4; human): Hit
5 | > 10 | CCCCc1nc(C=O)c(Cl)[nH]1 [2-Butyl-4-chloro-5-formylimidazole] |  | 
6 | > 10 | CC(=O)/C=C/C1=C(C)CCCC1(C)C [β-Ionone] |  | 
7 | > 10 | NCCCn1ccnc1 [N-(3-Aminopropyl) imidazole] |  | 

Continued, compound first:

Row | Compound | IC50 (CYP3A4; human) [µM] | IC50 (CYP3A4; [2]) [µM] | other results
8 | N[C@@H](Cc1c[nH]cn1)C(=O)O [Histidine] | > 10 |  | 
9 | CC(=O)n1ccnc1 [1-Acetylimidazole] |  | > 10 | 
10 | N=C(N)c1ccc(OCCCCCCOc2ccc(C(=N)N)cc2)cc1 [Hexamidine diisethionate] |  | > 10 | 
11 | CCc1ncc[nH]1 [2-Ethylimidazole] | > 10 |  | 
12 | c1ccc(-c2n[nH]cc2-c2ccnc3ccccc23)nc1 [LY-364947] | > 10 |  | 
13 | CCCCNC(=O)n1c(NC(=O)OC)nc2ccccc21 [Benomyl] |  | > 10 | hit / no hit, inhibition of CYP3A4 (CYP3A4; P450-GLO Assay kit): no hit (weak/no inhibition (IC50 value >10 μM))
14 | Cc1nccn1Cc1ccccc1 [1-benzyl-2-methylimidazole] |  |  | IC50 ([1]; pig, 90 min, pH 7.4): 308 µM
15 | Clc1ccc(COC(Cn2ccnc2)c2ccc(Cl)cc2Cl)c(Cl)c1 (stereo not drawn) [Miconazole] |  |  | hit / no hit, inhibition of CYP3A4 (CYP3A4; human): Hit 5 uM
16 | Cc1ncc[nH]1 [2-Methylimidazole] |  | > 10 | 
17 | Clc1ccccc1-c1nc2ccccc2[nH]1 [2-(2-Chlorophenyl) benzimidazole] |  | > 10 | 
18 | CC(=O)c1ccc(-n2ccnc2)cc1 [4′-(Imidazol-1yl) acetophenome] |  |  | hit / no hit, inhibition of CYP3A4 (CYP3A4; human): Hit
19 | CCc1nc(C)c[nH]1 [2-Ethyl-4-methylimidazole] |  | > 10 | 
20 | Cc1ccc2cc3c(ccc4ccccc43)c3c2c1CC3 [Methylcholanthrene] |  | > 10 | hit / no hit, inhibition of CYP3A4 (CYP3A4; P450-GLO Assay kit): Near Hit
21 | CC(C)(C(=O)c1cccnc1)c1cccnc1 [Metyrapone] |  |  | hit / no hit, inhibition of CYP3A4 (CYP3A4; human): Hit
22 | c1ccc(-c2ncc[nH]2)cc1 [2-phenylimidazole, 2-Phenylimidazole] | > 10 |  | inhibitory activity in the CYP3A4 assay (in words) (CYP3A4): did not; hit / no hit, inhibition of CYP3A4 (CYP3A4; P450-GLO Assay kit): no hit (weak/no inhibition (IC50 value >10 μM)); CYP inhibitory activity (in words), 4-hydroxylase assay ([1]; pig liver microsomes): lacked any significant inhibitory activity; IC50 [1, 3]: > 500 µM
23 | CCc1cccc(C)c1N(C(=O)CCl)[C@@H](C)COC [Metolachlor] |  | > 10 | hit / no hit, inhibition of CYP3A4 (CYP3A4; P450-GLO Assay kit): no hit (weak/no inhibition (IC50 value >10 μM))
24 | Cn1ccnc1 [1-Methylimidazole] | > 10 |  | 
25 | Cc1cccc(C)c1N(Cn1cccn1)C(=O)CCl [Metazachlor] |  | > 10 | hit / no hit, inhibition of CYP3A4 (CYP3A4; human): no hit >10 uM (key: hit: strong inhibition (IC50 value<10 μM); no hit: weak/no inhibition (IC50 value >10 μM))
26 | Nc1nc[nH]n1 [Amitrol] | > 10 |  | 
27 | c1ccc(Cn2ccnc2)cc1 [1-benzylimidazole] |  |  | IC50 [1, 3]: 77.5 µM
28 | C=Cn1ccnc1 [1-Vinylimidazole] |  | > 10 | 
29 | Diltazem |  | > 10 | hit / no hit, inhibition of CYP3A4 (CYP3A4; P450-GLO Assay kit): no hit (weak/no inhibition (IC50 value >10 μM))
30 | c1ccc(-n2ccnc2)cc1 [1-phenylimidazole] |  |  | hit / no hit, inhibition of CYP3A4 (CYP3A4; P450-GLO Assay kit): Hit; inhibitory activity in the CYP3A4 assay (in words) (CYP3A4; P450-GLO Assay kit): showed inhibitory activity; CYP inhibitory activity (in words), 4-hydroxylase assay ([1]; pig liver microsomes): in the same range as climbazole; IC50 [1, 3]: 52.5 µM
31 | c1ccc(-c2nc[nH]c2-c2ccccc2)cc1 [4,5-diphenylimidazole] |  |  | IC50 ([1]; pig, 90 min, pH 7.4): 100 µM
32 | c1coc(-c2nc3ccccc3[nH]2)c1 [Fuberidazole] |  | > 10 | hit / no hit, inhibition of CYP3A4 (CYP3A4; human): no hit >10 uM (key: hit: strong inhibition (IC50 value<10 μM); no hit: weak/no inhibition (IC50 value >10 μM))
33 | c1ccc2[nH]cnc2c1 [Benzimidazole] |  | > 10 | 
34 | O=C(n1ccnc1)n1ccnc1 [1′-1-Carbonylimidazole] |  | > 10 | 
